Measurements: patent publication US7517884B2 (Kalypsys Inc., priority 1998, dated 2009)

How the values were obtained:
Assay type in all cases: cell-based, murine and human
Details in all cases: GAL4-PPAR LBD chimera
PPAR-alpha = biological target: T1, PPAR-alpha (UniProt Q07869); test: PPAR-alpha transactivation assay (GAL4 chimera, luciferase reporter) in CV-1 cells
T1 sequence (Q07869 1-468): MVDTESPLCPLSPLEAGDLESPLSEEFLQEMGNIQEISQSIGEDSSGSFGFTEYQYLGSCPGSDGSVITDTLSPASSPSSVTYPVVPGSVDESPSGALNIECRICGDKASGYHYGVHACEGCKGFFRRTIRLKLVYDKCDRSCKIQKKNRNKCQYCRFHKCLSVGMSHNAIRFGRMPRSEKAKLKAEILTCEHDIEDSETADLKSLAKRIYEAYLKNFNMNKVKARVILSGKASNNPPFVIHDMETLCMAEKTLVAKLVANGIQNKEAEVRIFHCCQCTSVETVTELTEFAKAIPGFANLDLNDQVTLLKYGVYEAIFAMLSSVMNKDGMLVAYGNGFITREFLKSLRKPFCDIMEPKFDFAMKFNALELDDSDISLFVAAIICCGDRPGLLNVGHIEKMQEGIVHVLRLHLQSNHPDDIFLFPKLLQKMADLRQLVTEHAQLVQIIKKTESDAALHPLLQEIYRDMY
Summary of the method: (§1)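 CV-1 cells transiently transfected with murine or human PPAR-alpha, -gamma or -delta ligand-binding domain fused to GAL4 DNA-binding domain plus a GAL4-site luciferase reporter. After replating in phenol-red-free DME with 5% delipidated calf serum, cells were exposed to compound 20-24 h; luciferase read-out gave EC50.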

PPAR-delta = biological target: T2, PPAR-delta (UniProt Q03181); test: PPAR-delta transactivation assay (GAL4 chimera, luciferase reporter) in CV-1 cells
T2 sequence (Q03181 1-441): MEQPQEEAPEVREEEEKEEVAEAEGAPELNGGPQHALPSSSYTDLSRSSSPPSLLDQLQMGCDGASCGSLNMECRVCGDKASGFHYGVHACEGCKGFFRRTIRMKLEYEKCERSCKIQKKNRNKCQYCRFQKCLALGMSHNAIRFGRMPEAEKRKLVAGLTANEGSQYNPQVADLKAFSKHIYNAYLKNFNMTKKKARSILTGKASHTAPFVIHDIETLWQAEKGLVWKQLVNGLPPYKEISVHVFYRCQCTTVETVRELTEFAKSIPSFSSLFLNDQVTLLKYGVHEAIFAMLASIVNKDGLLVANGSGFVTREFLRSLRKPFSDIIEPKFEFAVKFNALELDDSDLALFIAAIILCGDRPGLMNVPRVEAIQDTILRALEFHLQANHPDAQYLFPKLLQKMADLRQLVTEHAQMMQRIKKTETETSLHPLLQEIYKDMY
Summary of the method: as §1

PPAR-gamma = biological target: T3, PPAR-gamma (UniProt P37231); test: PPAR-gamma transactivation assay (GAL4 chimera, luciferase reporter) in CV-1 cells
T3 sequence (P37231 1-505): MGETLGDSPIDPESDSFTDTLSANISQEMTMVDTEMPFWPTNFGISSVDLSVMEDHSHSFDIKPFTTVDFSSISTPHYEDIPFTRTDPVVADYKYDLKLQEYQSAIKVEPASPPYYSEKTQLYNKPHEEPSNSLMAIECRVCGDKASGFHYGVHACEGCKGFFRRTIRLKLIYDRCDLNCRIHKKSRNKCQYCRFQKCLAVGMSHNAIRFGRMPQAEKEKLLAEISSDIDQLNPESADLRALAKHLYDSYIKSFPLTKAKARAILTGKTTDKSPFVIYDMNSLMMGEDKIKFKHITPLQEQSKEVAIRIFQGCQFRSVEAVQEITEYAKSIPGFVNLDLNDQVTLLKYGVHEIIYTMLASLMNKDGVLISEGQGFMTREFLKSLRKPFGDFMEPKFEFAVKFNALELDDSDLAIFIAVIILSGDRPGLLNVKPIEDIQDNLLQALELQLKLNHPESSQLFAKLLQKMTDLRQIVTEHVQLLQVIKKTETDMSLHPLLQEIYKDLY
Summary of the method: as §1

Structure (SMILES) | EC50 (PPAR-alpha) [µM] | EC50 (PPAR-delta) [µM] | EC50 (PPAR-gamma) [µM]
C[C@@H]1CN(c2ccc(OC(F)(F)F)cc2)C[C@H](C)N1S(=O)(=O)c1ccc2ccn(CC(=O)O)c2c1 [Example 88, {6-[cis-2,6-Dimethyl-4-(4-trifluoromethoxy-phenyl)-piperazine-1-sulfonyl]-indol-1-yl}-acetic acid] | > 100 | < 5 | 5 to 100
C[C@@H]1CN(Cc2ccc(C(F)(F)F)cc2)C[C@H](C)N1S(=O)(=O)c1cccc2c1CC(C(=O)O)C2 (stereo partly drawn) [Example 96, 4-[cis-2,6-dimethyl-4-(4-trifluoromethyl-benzyl)-piperazine-1-sulfonyl]-indan-2-carboxylic acid] | > 100 | < 5 | 5 to 100
C[C@@H]1CN(c2ccc(SC(F)(F)F)cc2)C[C@H](C)N1S(=O)(=O)c1cccc2c1CC(C(=O)O)C2 (stereo partly drawn) [Example 101, 4-[cis-2,6-dimethyl-4-(4-trifluoromethylsulfanyl-phenyl)-piperazine-1-sulfonyl]-indan-2-carboxylic acid] | 5 to 100 | < 5 | 5 to 100
C[C@@H]1CN(c2ccc(Cl)cc2Cl)C[C@H](C)N1S(=O)(=O)c1ccc2c(c1)C(C(=O)O)CC2 (stereo partly drawn) [Example 103, 6-[4-(2,4-dichloro-phenyl)-cis-2,6-dimethyl-piperazine-1-sulfonyl]-indan-1-carboxylic acid] | 5 to 100 | < 5 | 5 to 100
C[C@@H]1CN(c2ccc(C(F)(F)F)cc2)C[C@H](C)N1S(=O)(=O)c1cccc2c1CC(C(=O)O)C2 (stereo partly drawn) [Example 105, 4-[cis-2,6-Dimethyl-4-(4-trifluoromethyl-phenyl)-piperazine-1-sulfonyl]-indan-2-carboxylic acid] | 5 to 100 | < 5 | 5 to 100
C[C@@H]1CN(c2ccc(C(C)(C)C)cc2)C[C@H](C)N1S(=O)(=O)c1cccc2c1CC(C(=O)O)C2 (stereo partly drawn) [Example 106, 4-[4-(4-tert-butyl-phenyl)-cis-2,6-dimethyl-piperazine-1-sulfonyl]-indan-2-carboxylic acid] | 5 to 100 | < 5 | 5 to 100
C[C@@H]1CN(c2cc(Cl)c(C(F)(F)F)cn2)C[C@H](C)N1S(=O)(=O)c1cccc2c1CC(C(=O)O)C2 (stereo partly drawn) [Example 107, 4-[4-(4-Chloro-5-trifluoromethyl-pyridin-2-yl)-cis-2,6-dimethylpiperazine-1-sulfonyl]-indan-2-carboxylic acid] | > 100 | < 5 | > 100
C[C@@H]1CN(c2ccc(OC(F)(F)F)cc2)C[C@H](C)N1S(=O)(=O)c1cccc2c1CC(C(N)=O)C2 (stereo partly drawn) [Example 108, 4-[cis-2,6-dimethyl-4-(4-trifluoromethoxy-phenyl)-piperazine-1-sulfonyl]-indan-2-carboxylic acid amide] | 5 to 100 | < 5 | 5 to 100
C[C@@H]1CN(c2ccc(OC(F)(F)F)cc2)C[C@H](C)N1S(=O)(=O)c1cccc2c1CC(c1nnn[nH]1)C2 (stereo partly drawn) [Example 109, cis-2,6-dimethyl-1-[2-(1H-tetrazol-5-yl)-indane-4-sulfonyl]-4-(4-trifluoromethoxy-phenyl)-piperazine] | > 100 | < 5 | 5 to 100
C[C@@H]1CN(Cc2ccc(OC(F)(F)F)cc2)C[C@H](C)N1S(=O)(=O)c1ccc2scc(CC(=O)O)c2c1 [Example 110, {5-[cis-2,6-dimethyl-4-(4-trifluoromethoxy-benzyl)-piperazine-1-sulfonyl]-benzo[b]thiophen-3-yl}-acetic acid] | > 100 | < 5 | 5 to 100

Continued, values first:

EC50 (PPAR-alpha) [µM] | EC50 (PPAR-delta) [µM] | EC50 (PPAR-gamma) [µM] | Structure (SMILES)
< 5 | < 5 | < 5 | O=C(O)C1Cc2cccc(S(=O)(=O)N3CCN(c4ccc(OC(F)(F)F)cn4)CC3)c2C1 (stereo not drawn) [Example 89, 4-[4-(5-Trifluoromethoxy-pyridin-2-yl)-piperazine-1-sulfonyl]-indan-2-carboxylic acid]
5 to 100 | < 5 | 5 to 100 | O=C(O)Cn1ccc2ccc(S(=O)(=O)N3CCN(c4ccc(OC(F)(F)F)cc4)CC3)cc21 [Example 90, {6-[4-(4-Trifluoromethoxy-phenyl)-piperazine-1-sulfonyl]-indol-1-yl}-acetic acid]
5 to 100 | < 5 | < 5 | O=C(O)CN1CCc2ccc(S(=O)(=O)N3CCN(c4ccc(OC(F)(F)F)cc4)CC3)cc21 [Example 91, {6-[4-(4-trifluoromethoxy-phenyl)-piperazine-1-sulfonyl]-2,3-dihydro-indol-1-yl}-acetic acid]
5 to 100 | < 5 | 5 to 100 | O=C(O)C1Cc2cccc(S(=O)(=O)N3CCN(c4ccc(Cl)cc4)CC3)c2C1 (stereo not drawn) [Example 92, 4-[4-(4-chloro-phenyl)-piperazine-1-sulfonyl]-indan-2-carboxylic acid]
5 to 100 | < 5 | 5 to 100 | C[C@H]1CN(c2ccc(OC(F)(F)F)cc2)CCN1S(=O)(=O)c1cccc2c1CC(C(=O)O)C2 (stereo partly drawn) [Example 93, 4-[2-(S)-Methyl-4-(4-trifluoromethoxy-phenyl)-piperazine-1-sulfonyl]-indan-2-carboxylic acid]
5 to 100 | < 5 | 5 to 100 | C[C@H]1CN(c2ccc(C(F)(F)F)cn2)CCN1S(=O)(=O)c1cccc2c1CC(C(=O)O)C2 (stereo partly drawn) [Example 94, 4-[2-(S)-Methyl-4-(5-trifluoromethyl-pyridin-2-yl)-piperazine-1-sulfonyl]-indan-2-carboxylic acid]
5 to 100 | < 5 | 5 to 100 | C[C@@H]1CN(Cc2ccc(OC(F)(F)F)cc2)C[C@H](C)N1S(=O)(=O)c1cccc2c1CC(C(=O)O)C2 (stereo partly drawn) [Example 95, 4-[cis-2,6-dimethyl-4-(4-trifluoromethoxyl-benzyl)-piperazine-1-sulfonyl]-indan-2-carboxylic acid]
5 to 100 | < 5 | 5 to 100 | O=C(O)C1Cc2cccc(S(=O)(=O)N3CCN(Cc4ccc(C(F)(F)F)cc4)CC3)c2C1 (stereo not drawn) [Example 97, 4-[4-(4-trifluoromethyl-benzyl)-piperazine-1-sulfonyl]-indan-2-carboxylic acid]
5 to 100 | < 5 | < 5 | O=C(O)C1Cc2cccc(S(=O)(=O)N3CCN(Cc4ccc(OC(F)(F)F)cc4)CC3)c2C1 (stereo not drawn) [Example 98, 4-[4-(4-trifluoromethoxy-benzyl)-piperazine-1-sulfonyl]-indan-2-carboxylic acid]
5 to 100 | < 5 | 5 to 100 | C[C@@H]1CN(c2ccc(OC(F)(F)F)cn2)C[C@H](C)N1S(=O)(=O)c1cccc2c1CC(C(=O)O)C2 (stereo partly drawn) [Example 99]
5 to 100 | < 5 | 5 to 100 | C[C@@H]1CN(c2ccc(OC(F)(F)F)cc2)C[C@H](C)N1S(=O)(=O)c1ccc2scc(CC(=O)O)c2c1 [Example 100, {5-[cis-2,6-dimethyl-4-(4-trifluoromethoxy-phenyl)-piperazine-1-sulfonyl]-benzo[b]thiophen-3-yl}-acetic acid]
< 5 | < 5 | < 5 | O=C(O)C1Cc2cccc(S(=O)(=O)N3CCN(c4ccc(OC(F)(F)F)cc4)CC3)c2C1 (stereo not drawn) [Example 102, 4-[4-(-trifluoromethoxy-phenyl)-piperazine-1-sulfonyl]-indan-2-carboxylic acid]
< 5 | < 5 | 5 to 100 | C[C@@H]1CN(c2ccc(C(F)(F)F)cc2)C[C@H](C)N1S(=O)(=O)c1ccc2c(c1)C(C(=O)O)CC2 (stereo partly drawn) [Example 104, 6-[cis-2,6-dimethyl-4-(4-trifluoromethyl-phenyl)-piperazine-1-sulfonyl]-indan-1-carboxylic acid]
